In PubChem BioAssay (NCI):
Several values for one entry are separate records, joined by “and”; a condition that tells them apart may be missing. Equal entries are not always repeated.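 Step 1: Grow cells in 96-well plates. Step 2: Expose to compound for 48 hours at 5 concentrations. Step 3: Interpolate endpoints linearly; if unreached, use highest concentration. GI50: concentration for 50% inhibition of growth. Definition used: TGI = concentration required for complete inhibition of growth.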

What was measured:
Assay in all cases: growth of human tumour cells (NCI), 48 h
MDA-MB-435 = test system: MDA-MB-435
HCT-15 colon = test system: HCT-15 colon
HS 578T breast = test system: HS 578T breast
OVCAR-8 ovarian = test system: OVCAR-8 ovarian
HOP-62 NSCLC = test system: HOP-62 NSCLC
SF-539 CNS = test system: SF-539 CNS
M14 melanoma = test system: M14 melanoma
ACHN renal = test system: ACHN renal
SK-MEL-5 melanoma = test system: SK-MEL-5 melanoma
UO-31 renal = test system: UO-31 renal

| Structure (SMILES) | TGI (MDA-MB-435) | TGI (HCT-15 colon) | TGI (HS 578T breast) | TGI (OVCAR-8 ovarian) | TGI (HOP-62 NSCLC) | TGI (SF-539 CNS) | TGI (M14 melanoma) | TGI (ACHN renal) | TGI (SK-MEL-5 melanoma) | TGI (UO-31 renal) | GI50 (MDA-MB-435) | GI50 (M14 melanoma) | GI50 (UO-31 renal) |
| --- | --- | --- | --- | --- | --- | --- | --- | --- | --- | --- | --- | --- | --- |
| CC(=O)N=C1N(/C=C2\C(=O)Oc3ccccc3C2=O)C(=O)/C(=C/c2ccc(Cl)cc2Cl)N1C | > 100 µM | > 100 µM | 5.03 µM | > 100 µM | > 100 µM | > 100 µM | > 100 µM | > 100 µM | > 100 µM | – | – | – | – |
| Cc1ccc(/C=N/Nc2ccc3ccccc3n2)s1 | 56.7 µM | > 100 µM | > 100 µM | > 100 µM | 41.1 µM | > 100 µM | 58.8 µM | 39.9 µM | 30.7 µM | > 100 µM | – | – | – |
| Clc1ccc(C2Nc3ccccc3C3=NCCN32)cc1 (stereo not given) | 39.8 µM | > 100 µM | > 100 µM | 38.3 µM | > 100 µM | 30.6 µM | 30.6 µM | > 100 µM | 34.4 µM | > 100 µM | – | – | – |
| O=C(N/N=C1/C(=O)c2c3ccccc3cc3cccc1c23)c1ccccc1 | > 86.7 µM | > 100 µM | > 73.2 µM | > 92.3 µM | 40.3 µM | > 100 µM | > 100 µM | > 67.4 µM | > 63.2 µM | > 100 µM | – | – | – |
| O=[N+]([O-])c1cc2c(cc1/C=N/n1c(CO)nc3ccccc31)OCO2 | > 100 µM | > 100 µM | > 100 µM | > 100 µM | > 100 µM | > 100 µM | > 100 µM | > 100 µM | > 100 µM | > 100 µM | – | – | – |
| Cc1noc(NC2=CC(=O)C(=O)c3ccccc32)c1C | 0.397 µM | > 100 µM | > 100 µM | > 100 µM | > 100 µM | 14.1 µM | > 100 µM | > 100 µM | 3.75 µM | > 100 µM | – | – | – |
| CCOP(=O)(OCC)C(C#N)Cc1ccco1 (stereo not given) | > 10 µM | > 10 µM | > 10 µM | > 10 µM | > 10 µM | > 10 µM | > 10 µM | > 10 µM | > 10 µM | > 10 µM | – | – | – |
| O=C1OC(=O)c2cc(S(=O)(=O)c3ccc4c(c3)C(=O)OC4=O)ccc21 | > 100 µM | > 100 µM | > 100 µM | > 100 µM | > 100 µM | > 100 µM | > 100 µM | > 100 µM | > 100 µM | > 100 µM | – | – | – |
| COc1cc2c(cc1OC)C1(COc3cc(O)c(O)c(O)c3C1=O)C2 (stereo not given) | > 50 µM | > 50 µM | > 50 µM | > 50 µM | > 50 µM | > 50 µM | > 50 µM | > 50 µM | > 50 µM | > 50 µM | – | – | – |
| CCOC(=O)CNc1nc(=O)c2c(=O)oc(Cl)cc2o1 | 35.4 µM | 23.7 µM | 45.1 µM | 23.2 µM | 53.3 µM | 22 µM | 49.1 µM | 26.3 µM | > 100 µM | 25.4 µM | – | – | – |
| CCOC(=O)C(Cc1cccn1C(=O)OC(C)(C)C)[N+](=O)[O-] (stereo not given) | 77.1 µM | 62.3 µM | 75.9 µM | 93 µM | 56.7 µM | 58.7 µM | 40.9 µM | 47.5 µM | 37.9 µM | 39.3 µM | – | – | – |
| O=S(=O)(/N=C(\NO)Nc1ccc(Cl)cc1)c1cccc2nsnc12 | > 100 µM | > 100 µM | 85.6 µM | > 100 µM | > 100 µM | > 100 µM | > 100 µM | > 100 µM | 29.5 µM | > 100 µM | – | – | – |
| CC1OC(OC2C(OC(=O)[C@]34CCC(C)(C)C[C@H]3C3=CC[C@@H]5[C@@]6(C)CC[C@H](OC7OC(C(=O)O)C(O)C(OC8OCC(O)C(O)C8O)C7O)C(C)(C)[C@@H]6CC[C@@]5(C)[C@]3(C)CC4)OCC(O)C2O)C(O)C(OC2OCC(O)C(O)C2O)C1OC1OCC(O)C(OC2OCC(O)C(O)C2O)C1O (stereo not given in full) | 20.1 µM and 32 µM | 32.2 µM and 42.4 µM | 37.9 µM and 62.4 µM | 27.7 µM and 43.1 µM | 30.7 µM and 32.6 µM | 68.7 µM | 17 µM and 34 µM | 19.6 µM and 25.1 µM | 29.6 µM and 35 µM | 4.99 µM and 21.1 µM | 7.32 µM and 16.7 µM | 5.97 µM and 19.2 µM | 2.12 µM and 9 µM |
| CC(=O)OC1COC(Nc2nc(NCc3ccccc3)n(C)c(=O)c2N=O)C(OC(C)=O)C1OC(C)=O (stereo not given) | > 10 µM | > 10 µM | > 10 µM | > 10 µM | > 10 µM | > 10 µM | > 10 µM | > 10 µM | > 10 µM | – | – | – | – |
| COc1c(O)cc2c(c1O)C(=O)/C(=C/c1ccc(O)cc1)CO2 | > 100 µM | 38.2 µM | > 100 µM | 39.6 µM | 76.3 µM | 48.9 µM | 61.1 µM | 48.3 µM | 59.6 µM | 65.1 µM | – | – | – |
| c1c[nH]c(C23C4C5C6C4C2C6C53)n1 (stereo not given) | > 100 µM | > 100 µM | > 100 µM | > 100 µM | > 100 µM | > 100 µM | > 100 µM | > 100 µM | > 100 µM | > 100 µM | – | – | – |
| CC[C@H]1C=CCC[C@@]2(C[C@@H]3CC[C@H]4[C@@H](C(=O)OCCCCCCCCCCCCCCCC(=O)N(CCCN)C[C@@H](O)CCN)[C@@]5(CCC[C@@H](C)O5)NC(=[N+]34)N2)O1 | 2.88 µM | > 10 µM | 3.4 µM | 4.93 µM | 3.06 µM | 2.78 µM | 3.82 µM | > 10 µM | 2.87 µM | > 10 µM | – | – | – |
| COC(C)(C)C1(O)CCC(C)CC1=O (stereo not given) | > 100 µM | > 100 µM | > 100 µM | > 100 µM | > 100 µM | > 100 µM | > 100 µM | > 100 µM | > 100 µM | > 100 µM | – | – | – |
| CCOC(=O)CC(=O)Nc1cccc2[nH]cnc12 | > 100 µM | > 100 µM | > 100 µM | > 100 µM | > 100 µM | > 100 µM | > 100 µM | > 100 µM | > 100 µM | > 100 µM | – | – | – |
| Cc1ccc(/C(O)=C/c2nc3ccccc3s/c2=N/CS(=O)(=O)c2ccc(C)cc2)cc1 | > 10 µM | > 10 µM | > 10 µM | > 10 µM | > 10 µM | > 10 µM | > 10 µM | > 10 µM | > 10 µM | – | – | – | – |
